Earlier results in patent US20050154058A1, “Method of preparing hydroxytyrosol esters, esters thus obtained and use of same” (priority 2002, published 2005).

Assays:
[1] = state of the art, compared in words with free hydroxytyrosol or usual additives
[2] = state of the art

Row | Compound | antioxidant activity / protective capacity against oxidation [1] | solubility in lipophilic medium [2]
1 | CC(=O)OCCc1ccc(O)c(O)c1 [Example 1, 2-(3,4-dihydroxyphenyl)ethyl Acetate] | the same activity towards oxidation as does free hydroxytyrosol itself | liposoluble
2 | OCCc1ccc(O)c(O)c1 [Hydroxytyrosol, 2-(3,4-dihydroxyphenyl)ethanol] | much greater than the antioxidant additives normally used | virtually insoluble in lipophilic medium
